We go through five compounds from patent US7468274B2, “Single cell analysis of HIV replication capacity and drug resistance” (priority 2004, dated 2008).

Where “and” joins values, the source holds several entries; their conditions need not be identical. Equal values may be shown once. Entries after “also recorded” stand apart in the source; their conditions may differ. Read-outs that look alike come from different tables or passages of the source. A value given as a limit tells only on which side of the number the result lay.

Series [1] concerns Pt2019-1-1 patient-derived drug-resistant HIV-1 isolate. The series is classed as cell-based.
In series [2] the test system is pseudotyped reporter viruses carrying the NL4-3 gag-pol sequence (wild type). Type of series: cell-based, HIV-1.
Series [3] relates to Pt2019-1-2 patient-derived drug-resistant HIV-1 isolate. The series is classed as cell-based.
For series [4] the following is noted: in vivo; cited from earlier work.

For `Nc1ccn([C@@H]2CS[C@H](CO)O2)c(=O)n1` [3TC, lamivudine], the Drug Resistance Index is on record as 1 in series [1]; 0.8 in series [1] (Pt2019-1-1, concn 12.5 (head prints p.M; text 12.5 μM)); 0.002 in series [2]; 0.001 in series [3] (concn 12.5 (head prints p.M; text 12.5 μM)). The “Replication Index” value came out at 0.42 in series [1] (Pt2019-1-1, concn 12.5 (head prints p.M)) and 0.00053 in series [3] (concn 12.5 (head prints p.M)). Moreover, in series [2], the “Replication Index (replication capacity index x drug resistance index)” value is listed as 0.002.

For the compound `Cc1cn([C@H]2C[C@H](N=[N+]=[N-])[C@@H](CO)O2)c(=O)[nH]c1=O` [AZT, zidovudine], in series [2], the “% GFP-positive target cells” value is 7.61% and 6.70% and 7.59% and 6.71%; the “Drug resistance index (replication with drug / without drug)” value is 0.356; the “Mean % GFP-positive target cells” value is given as 7.15%.

In the case of `O=C1Nc2ccc(Cl)cc2[C@@](C#CC2CC2)(C(F)(F)F)O1` [EFV, efavirenz], the “Cmin/IC50 ratio (published Cmin to IC50 measured in this system)” value in series [2] was > 1,000 fold.

With `Cc1cn([C@H]2C=C[C@@H](CO)O2)c(=O)[nH]c1=O` [d4T, stavudine], in series [2], the “% GFP-positive target cells” value was 6.83% and 7.04% and 5.74%; the “Cmax relative to IC50 measured in this system” value is “close to or below; also recorded: below”; the “Drug resistance index (replication with drug / without drug)” value amounted to 0.325; the “Mean % GFP-positive target cells” value is on record as 6.54%.

Broadly, the Cmax is the highest concentration seen after dosing. As for `O=c1[nH]cnc2c1ncn2[C@H]1CC[C@@H](CO)O1` [ddI, didanosine], in series [4], the maximum concentration (Cmax) was 6.78 µM. For the same compound, in series [2], the “Cmax relative to IC50 measured in this system” value was “close to or below” and the “Cmax relative to IC90 measured in this system” value is given as “below”.
